# pIC50: −log10 of the molar value.
# Biological target: T1, human TRPV4 (hTRPV4/CHO cells) (Homo sapiens, UniProt Q9HBA0)
# T1 construct: expressed in transfected cells; host or cells: CHO-K1
# Assay: Test Example 1: TRPV4 inhibitory activity (IC50 value), 4α-PDD stimulation, Fluo4 calcium fluorescence (FLIPR TETRA)
# Assay type: cell-based
# Conditions: Test Example 1, 4α-PDD stimulation, read-out: Test 1 IC50
# T1 sequence (Q9HBA0 whole entry): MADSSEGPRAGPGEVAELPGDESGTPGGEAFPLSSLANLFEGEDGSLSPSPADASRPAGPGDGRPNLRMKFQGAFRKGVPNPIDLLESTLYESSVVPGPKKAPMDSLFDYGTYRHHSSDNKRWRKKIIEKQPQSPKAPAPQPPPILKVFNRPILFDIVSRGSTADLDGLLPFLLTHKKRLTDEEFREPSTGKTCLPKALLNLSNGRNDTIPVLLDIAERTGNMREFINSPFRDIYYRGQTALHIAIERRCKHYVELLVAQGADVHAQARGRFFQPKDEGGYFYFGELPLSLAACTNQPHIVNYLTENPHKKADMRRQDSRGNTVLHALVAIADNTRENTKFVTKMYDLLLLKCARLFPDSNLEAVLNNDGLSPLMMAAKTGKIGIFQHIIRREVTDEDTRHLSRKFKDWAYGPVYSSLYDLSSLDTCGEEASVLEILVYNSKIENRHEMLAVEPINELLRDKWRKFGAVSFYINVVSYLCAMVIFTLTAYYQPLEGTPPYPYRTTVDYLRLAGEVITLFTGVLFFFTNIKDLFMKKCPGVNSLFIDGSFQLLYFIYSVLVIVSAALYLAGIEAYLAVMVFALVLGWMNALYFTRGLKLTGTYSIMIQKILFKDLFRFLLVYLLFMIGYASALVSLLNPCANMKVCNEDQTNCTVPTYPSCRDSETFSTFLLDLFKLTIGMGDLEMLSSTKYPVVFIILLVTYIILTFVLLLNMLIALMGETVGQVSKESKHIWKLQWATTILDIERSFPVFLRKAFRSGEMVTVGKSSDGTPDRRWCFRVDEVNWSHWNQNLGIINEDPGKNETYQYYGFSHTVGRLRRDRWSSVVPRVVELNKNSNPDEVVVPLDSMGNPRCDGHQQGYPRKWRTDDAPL
row,pIC50,Structure (SMILES)
1,6.00 to 7.00,Cc1nc(C)c(-c2csc(NC(=O)C3CCN(S(=O)(=O)c4ccc(F)cc4)CC3)n2)s1 [Compound I-197]
2,5.10 to 6.00,Cc1nc(C(F)F)sc1-c1csc(NC(=O)C2CC2(F)F)n1 (stereo not shown) [Compound I-112]
3,5.10 to 6.00,Cc1nc(C)c(-c2csc(NC(=O)Cc3cccc(C#N)c3)n2)o1 [Compound I-138]
4,5.10 to 6.00,O=C(Cc1ccc(S(=O)(=O)C(F)(F)F)cc1)Nc1nc(-c2sc(CO)nc2CC(=O)N2CCOCC2)cs1 [Compound I-376]
5,6.00 to 7.00,Cc1nc(C(N)=O)sc1-c1csc(NC(=O)Cn2cc(Cl)cn2)n1 [Compound I-127]
6,5.10 to 6.00,CC(=O)N1C[C@H](Oc2ccccc2)C[C@H]1C(=O)Nc1nc(-c2sc(C)nc2C)cs1 [Compound I-251]
7,5.10 to 6.00,Cc1nc(C(C)O)oc1-c1csc(NC(=O)Cn2cc(C(F)(F)F)cn2)n1 (racemic) [Compound I-420]
8,> 7.00,O=C(Nc1nc(-c2sc(CO)nc2CO)cs1)C1CN(c2ccc(C(F)(F)F)cc2)C1 [Compound I-302]
9,> 7.00,Cc1nc(CCl)c(-c2csc(NC(=O)Cc3ccc(S(=O)(=O)C(F)(F)F)cc3)n2)s1 [Compound I-484]
10,5.10 to 6.00,Cc1nc(C)c(-c2nc(NC(=O)Cc3c(F)cccc3F)sc2C(=O)Nc2ccccc2Cl)s1 [Compound I-86]
11,> 7.00,Cc1nc(C)c(-c2csc(NC(=O)Cc3ccccc3[N+](=O)[O-])n2)s1 [Compound I-541]
12,> 7.00,Cc1nc(C)c(-c2csc(NC3CCCC3)n2)s1 [II-38]
13,> 7.00,Cc1nc(C)c(-c2csc(NC(=O)[C@@H]3C[C@@H](Oc4ccccc4)CN3C(=O)C(F)(F)F)n2)s1 [Compound I-250]
14,> 7.00,Cc1nc(CO)sc1-c1csc(NC(=O)[C@@H]2C[C@@H](c3ccccc3)CN2C(=O)C(C)(C)F)n1 [Compound I-328]
15,5.10 to 6.00,O=C(Nc1nc(-c2sc(CO)nc2CO)cs1)[C@@H]1C[C@@H](c2ccccc2)CN1CC(F)(F)F [Compound I-337]
16,5.10 to 6.00,Cc1nc(C)c(-c2csc(N(Cc3ccc(C(F)(F)F)cc3)C(=O)C3CN(O)C3)n2)s1 [Compound I-374]
17,> 7.00,Cc1nc(C)c(-c2csc(NC(=O)[C@@H]3CCN(c4ncc(C(F)(F)F)cn4)C3)n2)s1 [Compound I-394]
18,5.10 to 6.00,Cc1nc(C)c(-c2csc(NC(=O)[C@@H]3C[C@@H](N4CCC(c5ccccc5)CC4)CN3)n2)s1 [Compound I-274]
19,> 7.00,Cc1nc(CO)sc1-c1csc(NC(=O)C2CN(Cc3ccc(C(F)(F)F)cc3)C2)n1 [Compound I-208]
20,6.00 to 7.00,O=C(Nc1nc(-c2sc(CO)nc2CO)cs1)C1CN(c2ccc(F)cc2)C1 [Compound I-372]
21,6.00 to 7.00,"CC(=O)NC(C)c1nc(CO)sc1-c1csc(NC(=O)Cc2ccc(S(=O)(=O)C(F)(F)F)cc2)n1 (single isomer, unassigned) [Compound I-482]"
22,> 7.00,Cc1nc(CO)sc1-c1csc(NC(=O)[C@H]2C[C@H](OCC(F)(F)F)C2)n1 [Compound I-357]
23,6.00 to 7.00,Cc1nc(CO)sc1-c1csc(NC(=O)[C@H]2C[C@H](C(F)F)C2)n1 [Compound I-552]
24,6.00 to 7.00,Cc1nc(OCCO)sc1-c1csc(NC(=O)Cc2ccc(S(=O)(=O)C(F)(F)F)cc2)n1 [Compound I-461]
25,6.00 to 7.00,CC(=O)c1nc(C)c(-c2csc(NC(=O)Cc3c(F)cccc3F)n2)s1 [Compound I-98]

row,pIC50,Structure (SMILES)
1,> 7.00,Cc1nc(CO)sc1-c1csc(NC(=O)CC2CCN(c3ncc(C(F)(F)F)cn3)CC2)n1 [Compound I-449]
2,> 7.00,O=C(Cc1ccc(S(=O)(=O)C(F)(F)F)cc1)Nc1nc(-c2sc(CO)nc2CCCO)cs1 [Compound I-360]
3,6.00 to 7.00,Cc1nc(C)c(-c2csc(NC(=O)C3CN(CC(F)(F)F)C3)n2)s1 [Compound I-281]
4,> 7.00,Cc1nc(C)c(-c2csc(NC(=O)Cc3cc(N)cc(C(=O)N[C@H](c4ccccc4)C(F)(F)F)c3)n2)s1 [Compound I-518]
5,6.00 to 7.00,COC(=O)c1ccc(C(=O)N2CC(C(=O)Nc3nc(-c4sc(C)nc4C)cs3)C2)cc1 [Compound I-261]
6,> 7.00,Cc1nc([C@H](C)O)sc1-c1csc(NC(=O)Cc2ccc(S(=O)(=O)C(F)(F)F)cc2)n1 [Compound I-454]
7,6.00 to 7.00,Cc1nc(CS(C)(=O)=O)c(-c2csc(NC(=O)Cc3ccc(S(=O)(=O)C(F)(F)F)cc3)n2)s1 [Compound I-485]
8,> 7.00,Cc1nc(C)c(-c2csc(NC(=O)C3Cc4ccccc4O3)n2)s1 (stereo not shown) [Compound I-180]
9,5.10 to 6.00,Cc1nc(C)c(-c2nc(NC(=O)Cc3c(F)cccc3F)sc2-c2ccccc2Cl)s1 [Compound I-66]
10,6.00 to 7.00,COC(=O)c1ccc(CN2CC(C(=O)Nc3nc(-c4sc(C)nc4C)cs3)C2)cc1 [Compound I-263]
11,6.00 to 7.00,Cc1nc(CO)oc1-c1csc(NC(=O)Cc2ccc(S(=O)(=O)C(F)(F)F)cc2)n1 [Compound I-380]
12,> 7.00,Cc1nc(C)c(-c2csc(NC(=O)Cc3cccc(S(=O)(=O)Nc4ccccc4F)c3)n2)s1 [Compound I-501]
13,6.00 to 7.00,Cc1nc(C)c(-c2csc(NC(=O)Cc3cccc(OC(F)(F)F)c3)n2)o1 [Compound I-137]
14,5.10 to 6.00,Cc1nc(C)c(-c2nc(NC(=O)Cc3c(F)cccc3F)sc2/C=C\c2ccccc2)s1 [Compound I-73]
15,6.00 to 7.00,Cc1nc(C)c(-c2csc(NC(=O)Cn3cc(-c4cccnc4)cn3)n2)s1 [Compound I-148]
16,6.00 to 7.00,CC(=O)N1C[C@H](c2ccccc2)C[C@H]1C(=O)Nc1nc(-c2sc(C)nc2C)cs1 [Compound I-289]
17,5.10 to 6.00,Cc1nc(C(=O)N(C)C)sc1-c1csc(NC(=O)Cc2c(F)cccc2F)n1 [Compound I-114]
18,5.10 to 6.00,O=C(Nc1nc(-c2sc(CO)nc2CO)cs1)[C@H]1C[C@@H](OCc2ccccc2)C1 [Compound I-549]
19,5.10 to 6.00,Cc1nc(CO)sc1-c1csc(NC(=O)C2CC(=O)C2)n1 [Compound I-267]
20,6.00 to 7.00,Cc1nc(C)c(-c2csc(NC(=O)C(C)c3c(F)cccc3F)n2)s1 (stereo not shown) [Compound I-102]
21,> 7.00,Cc1nc(C)c(-c2csc(NC(=O)Cn3cc(-c4cccc(N(C)C)c4)cn3)n2)s1 [Compound I-149]
22,> 7.00,CC(=O)NCc1nc(CO)sc1-c1csc(NC(=O)C2CN(c3ccc(C(F)(F)F)cc3)C2)n1 [Compound I-353]
23,6.00 to 7.00,"CC(=O)NC(C)c1nc(CO)sc1-c1csc(NC(=O)Cc2ccc(S(=O)(=O)C(F)(F)F)cc2)n1 (single isomer, unassigned) [Compound I-481]"
24,> 7.00,Cc1nc(C)c(-c2csc(NC(=O)[C@@H]3C[C@H](c4ccccc4)CN3C(=O)OC(C)(C)C)n2)s1 [Compound I-246]
25,6.00 to 7.00,Cc1nc(C)c(-c2csc(NC(=O)[C@H]3CC[C@@H](c4ccccc4)N3)n2)s1 [Compound I-215]

row,pIC50,Structure (SMILES)
1,> 7.00,COc1ccccc1CC(=O)Nc1nc(-c2sc(C)nc2C)cs1 [Compound I-99]
2,> 7.00,Cc1nc(C)c(-c2csc(NC(=O)Cc3cccc(I)c3)n2)s1 [Compound I-443]
3,5.10 to 6.00,Cc1nc(C)c(-c2nsc(NC(=O)Cc3ccc(C(O)C(F)(F)F)cc3)n2)s1 (stereo not shown) [Compound I-544]
4,5.10 to 6.00,Cc1nc(C)c(-c2nc(NC(=O)Cc3c(F)cccc3F)sc2C(=O)NCc2ccccc2)s1 [Compound I-83]
5,5.10 to 6.00,Cc1nc(C)c(-c2csc(CCOc3ccc(Br)cc3)n2)s1 [II-4]
6,> 7.00,Cc1nc(C)c(-c2csc(NC(=O)Cc3cc(C(=O)N[C@H](c4ccccc4)C(F)(F)F)cc([N+](=O)[O-])c3)n2)s1 [Compound I-517]
7,5.10 to 6.00,Cc1nc(C)c(-c2csc(NC(=O)[C@@H]3C[C@H](c4ccccc4)CN3)n2)s1 [Compound I-179]
8,5.10 to 6.00,Cc1nc(OCCOCc2ccccc2)sc1-c1csc(NC(=O)Cc2ccc(S(=O)(=O)C(F)(F)F)cc2)n1 [Compound I-446]
9,> 7.00,Cc1nc(C)c(-c2csc(NC(=O)[C@H]3C[C@H](c4ccccc4)CN3C(=O)OC(C)(C)C)n2)s1 [Compound I-245]
10,6.00 to 7.00,Cc1nc(C)c(-c2csc(NC(=O)Cn3cc(-c4ccc(S(C)(=O)=O)cc4)cn3)n2)s1 [Compound I-151]
11,6.00 to 7.00,Cc1nc(CO)sc1-c1csc(NC(=O)NCc2ccc(Cl)cc2)n1 [Compound I-442]
12,6.00 to 7.00,NC(=O)c1nc(CO)c(-c2csc(NC(=O)C3CN(Cc4ccc(C(F)(F)F)cc4)C3)n2)s1 [Compound I-325]
13,6.00 to 7.00,Cc1nc(CO)sc1-c1csc(NC(=O)CC2Cc3ccccc3C2)n1 (racemic) [Compound I-239]
14,> 7.00,Cc1nc(C)c(-c2csc(NC(=O)Cn3cc(-c4ccc(Cl)cc4)cn3)n2)s1 [Compound I-147]
15,6.00 to 7.00,Cc1nc(CO)sc1-c1csc(NC(=O)C2CN(C(=O)OCC(F)(F)F)C2)n1 [Compound I-308]
16,> 7.00,Cc1nc(C)c(-c2csc(NC(=O)Cc3cccc(C(=O)Nc4ccccc4)c3)n2)s1 [Compound I-469]
17,6.00 to 7.00,Cc1nc(C)c(-c2csc(NC(=O)[C@H]3CC[C@@H](c4ccccc4)N3C(=O)OC(C)(C)C)n2)s1 [Compound I-211]
18,> 7.00,Cc1nc(C)c(-c2csc(NC3CCCCC3)n2)s1 [II-37]
19,> 7.00,Cc1nc(C)c(-c2csc(NC(=O)Cc3ccc(S(=O)(=O)N(C)c4ccc(Cl)cc4)cc3)n2)s1 [Compound I-160]
20,5.10 to 6.00,CN(C)Cc1nc(CO)sc1-c1csc(NC(=O)Cc2ccc(S(=O)(=O)C(F)(F)F)cc2)n1 [Compound I-412]
21,6.00 to 7.00,Cc1nc(C)c(-c2csc(NC(=O)C3CC(C(C)(C)C)=NO3)n2)s1 (stereo not shown) [Compound I-205]
22,5.10 to 6.00,Cc1nc(C)c(-c2csc(NC(=O)Cc3ccc(S(C)(=O)=O)cc3)n2)s1 [Compound I-119]
23,6.00 to 7.00,O=C(Nc1nc(-c2sc(CO)nc2CO)cs1)[C@H]1C[C@@H](OCc2ccc(C(F)(F)F)cc2)C1 [Compound I-550]
24,6.00 to 7.00,CCOC(=O)c1nc(C)c(-c2csc(NC(=O)Cc3c(F)cccc3F)n2)s1 [Compound I-94]
25,6.00 to 7.00,Cc1nc(CO)sc1-c1csc(NC(=O)C2C[C@H](C(F)(F)F)CN2C(=O)OCC(F)(F)F)n1 (stereo partly shown) [Compound I-475]

row,Structure (SMILES),pIC50
1,Cc1nc(C)c(-c2csc(NC(=O)CN3CCC(O)(c4ccccc4)CC3)n2)s1 [Compound I-153],5.10 to 6.00

# From US20170066759A1, “AROMATIC 5-MEMBERED HETEROCYCLIC DERIVATIVE HAVING TRPV4-INHIBITING ACTIVITY” (Shionogi & Co., Ltd., priority 2012, published 2017)
